Activity calls are given as the source filed them.
What was measured:
[1] = target: T1, Acyl-CoA dehydrogenase family member 11 (Homo sapiens, UniProt Q709F0)
T1 sequence (Q709F0 whole entry): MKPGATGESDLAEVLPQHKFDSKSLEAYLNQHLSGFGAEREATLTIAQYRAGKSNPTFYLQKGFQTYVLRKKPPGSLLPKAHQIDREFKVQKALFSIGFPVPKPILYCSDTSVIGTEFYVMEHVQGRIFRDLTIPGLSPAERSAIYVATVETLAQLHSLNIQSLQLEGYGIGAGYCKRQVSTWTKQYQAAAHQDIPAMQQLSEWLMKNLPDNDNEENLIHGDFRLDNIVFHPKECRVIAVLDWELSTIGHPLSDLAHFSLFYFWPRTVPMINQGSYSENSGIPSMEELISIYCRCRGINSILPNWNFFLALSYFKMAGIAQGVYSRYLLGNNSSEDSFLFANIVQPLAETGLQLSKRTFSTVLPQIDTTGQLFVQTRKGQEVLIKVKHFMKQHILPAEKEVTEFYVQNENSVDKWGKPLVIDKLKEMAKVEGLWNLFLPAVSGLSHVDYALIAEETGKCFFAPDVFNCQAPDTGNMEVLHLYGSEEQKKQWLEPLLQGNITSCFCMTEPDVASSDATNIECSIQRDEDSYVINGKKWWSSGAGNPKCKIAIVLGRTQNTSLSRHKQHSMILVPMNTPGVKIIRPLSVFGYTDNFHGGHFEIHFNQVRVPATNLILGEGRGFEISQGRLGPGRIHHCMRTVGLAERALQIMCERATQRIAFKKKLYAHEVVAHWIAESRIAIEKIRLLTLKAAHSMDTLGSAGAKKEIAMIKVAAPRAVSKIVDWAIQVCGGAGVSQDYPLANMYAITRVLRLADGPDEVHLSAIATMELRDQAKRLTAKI

[2] = target: Cyclin-dependent kinase 4 (Homo sapiens, UniProt P11802)
Chain of Cyclin-dependent kinase 4 (P11802 whole entry): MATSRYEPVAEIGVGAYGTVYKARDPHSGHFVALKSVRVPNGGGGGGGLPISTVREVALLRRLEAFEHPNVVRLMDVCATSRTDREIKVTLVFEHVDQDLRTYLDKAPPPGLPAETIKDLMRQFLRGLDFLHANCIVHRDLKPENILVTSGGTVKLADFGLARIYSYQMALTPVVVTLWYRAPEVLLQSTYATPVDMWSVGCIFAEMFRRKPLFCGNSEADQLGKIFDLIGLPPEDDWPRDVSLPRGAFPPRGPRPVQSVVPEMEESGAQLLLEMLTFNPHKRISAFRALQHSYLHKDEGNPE

[3] = target: T2, Probable ATP-dependent RNA helicase DDX6 (Homo sapiens, UniProt P26196)
T2 sequence (P26196 whole entry): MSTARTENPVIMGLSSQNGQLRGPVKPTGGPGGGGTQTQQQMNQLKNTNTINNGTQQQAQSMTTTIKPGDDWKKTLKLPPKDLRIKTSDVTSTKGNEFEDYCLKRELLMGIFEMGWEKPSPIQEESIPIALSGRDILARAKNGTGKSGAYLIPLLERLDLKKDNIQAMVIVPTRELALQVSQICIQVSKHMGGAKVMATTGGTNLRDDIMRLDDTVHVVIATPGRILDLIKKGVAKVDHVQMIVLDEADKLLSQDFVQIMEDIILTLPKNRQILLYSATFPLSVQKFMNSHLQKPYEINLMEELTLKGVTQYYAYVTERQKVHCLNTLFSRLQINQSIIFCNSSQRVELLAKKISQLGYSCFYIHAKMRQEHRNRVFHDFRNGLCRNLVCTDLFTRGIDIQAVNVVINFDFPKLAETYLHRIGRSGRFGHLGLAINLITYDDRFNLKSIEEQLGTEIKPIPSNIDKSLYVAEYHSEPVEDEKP

[4] = target: Eukaryotic translation initiation factor 2-alpha kinase 1 (Homo sapiens, UniProt Q9BQI3)
Chain of Eukaryotic translation initiation factor 2-alpha kinase 1 (Q9BQI3 whole entry): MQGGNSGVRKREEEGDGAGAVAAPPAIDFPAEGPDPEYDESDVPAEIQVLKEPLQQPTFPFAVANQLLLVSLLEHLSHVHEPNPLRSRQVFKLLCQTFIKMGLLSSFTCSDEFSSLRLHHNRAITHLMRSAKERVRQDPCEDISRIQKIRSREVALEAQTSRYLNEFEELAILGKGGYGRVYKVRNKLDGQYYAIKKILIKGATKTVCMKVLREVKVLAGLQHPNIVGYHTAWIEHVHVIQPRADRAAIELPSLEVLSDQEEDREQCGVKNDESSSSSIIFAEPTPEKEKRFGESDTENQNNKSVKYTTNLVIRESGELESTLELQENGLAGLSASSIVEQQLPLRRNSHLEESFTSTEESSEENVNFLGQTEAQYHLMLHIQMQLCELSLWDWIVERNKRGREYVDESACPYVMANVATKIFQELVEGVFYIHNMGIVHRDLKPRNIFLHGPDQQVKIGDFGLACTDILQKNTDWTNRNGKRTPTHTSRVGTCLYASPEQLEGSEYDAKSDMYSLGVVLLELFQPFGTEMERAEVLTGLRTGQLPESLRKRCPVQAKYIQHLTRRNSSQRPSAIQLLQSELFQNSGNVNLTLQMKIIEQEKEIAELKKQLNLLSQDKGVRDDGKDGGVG

[5] = target: T3, Serine/threonine-protein kinase NLK (Homo sapiens, UniProt Q9UBE8)
T3 sequence (Q9UBE8 whole entry): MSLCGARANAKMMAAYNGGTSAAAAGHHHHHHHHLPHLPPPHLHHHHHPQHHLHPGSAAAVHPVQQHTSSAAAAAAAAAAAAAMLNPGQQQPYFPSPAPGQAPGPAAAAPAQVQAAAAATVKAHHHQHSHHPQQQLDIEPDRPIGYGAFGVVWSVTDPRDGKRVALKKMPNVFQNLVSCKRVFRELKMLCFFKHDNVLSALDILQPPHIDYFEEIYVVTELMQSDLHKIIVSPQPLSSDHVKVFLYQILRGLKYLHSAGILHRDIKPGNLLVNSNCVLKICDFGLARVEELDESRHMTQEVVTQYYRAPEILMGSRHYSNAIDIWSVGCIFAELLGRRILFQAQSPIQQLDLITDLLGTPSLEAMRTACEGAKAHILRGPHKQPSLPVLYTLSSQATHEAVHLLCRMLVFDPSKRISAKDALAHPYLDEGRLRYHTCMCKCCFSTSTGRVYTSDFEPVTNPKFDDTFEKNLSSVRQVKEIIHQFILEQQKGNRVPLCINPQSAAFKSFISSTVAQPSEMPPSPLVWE

[6] = target: Serine/threonine-protein kinase pim-1 (Homo sapiens, UniProt P11309)
Chain of Serine/threonine-protein kinase pim-1 (P11309 whole entry): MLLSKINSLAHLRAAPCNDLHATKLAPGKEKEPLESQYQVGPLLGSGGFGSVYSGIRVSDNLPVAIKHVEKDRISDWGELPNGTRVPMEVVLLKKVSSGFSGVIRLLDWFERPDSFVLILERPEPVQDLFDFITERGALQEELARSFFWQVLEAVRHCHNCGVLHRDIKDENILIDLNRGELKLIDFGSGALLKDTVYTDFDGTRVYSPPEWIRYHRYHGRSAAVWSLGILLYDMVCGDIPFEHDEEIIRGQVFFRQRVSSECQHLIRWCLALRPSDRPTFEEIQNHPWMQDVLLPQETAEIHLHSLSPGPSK

[7] = target: Protein-tyrosine kinase 2-beta (Homo sapiens, UniProt Q14289)
Chain of Protein-tyrosine kinase 2-beta (Q14289 whole entry): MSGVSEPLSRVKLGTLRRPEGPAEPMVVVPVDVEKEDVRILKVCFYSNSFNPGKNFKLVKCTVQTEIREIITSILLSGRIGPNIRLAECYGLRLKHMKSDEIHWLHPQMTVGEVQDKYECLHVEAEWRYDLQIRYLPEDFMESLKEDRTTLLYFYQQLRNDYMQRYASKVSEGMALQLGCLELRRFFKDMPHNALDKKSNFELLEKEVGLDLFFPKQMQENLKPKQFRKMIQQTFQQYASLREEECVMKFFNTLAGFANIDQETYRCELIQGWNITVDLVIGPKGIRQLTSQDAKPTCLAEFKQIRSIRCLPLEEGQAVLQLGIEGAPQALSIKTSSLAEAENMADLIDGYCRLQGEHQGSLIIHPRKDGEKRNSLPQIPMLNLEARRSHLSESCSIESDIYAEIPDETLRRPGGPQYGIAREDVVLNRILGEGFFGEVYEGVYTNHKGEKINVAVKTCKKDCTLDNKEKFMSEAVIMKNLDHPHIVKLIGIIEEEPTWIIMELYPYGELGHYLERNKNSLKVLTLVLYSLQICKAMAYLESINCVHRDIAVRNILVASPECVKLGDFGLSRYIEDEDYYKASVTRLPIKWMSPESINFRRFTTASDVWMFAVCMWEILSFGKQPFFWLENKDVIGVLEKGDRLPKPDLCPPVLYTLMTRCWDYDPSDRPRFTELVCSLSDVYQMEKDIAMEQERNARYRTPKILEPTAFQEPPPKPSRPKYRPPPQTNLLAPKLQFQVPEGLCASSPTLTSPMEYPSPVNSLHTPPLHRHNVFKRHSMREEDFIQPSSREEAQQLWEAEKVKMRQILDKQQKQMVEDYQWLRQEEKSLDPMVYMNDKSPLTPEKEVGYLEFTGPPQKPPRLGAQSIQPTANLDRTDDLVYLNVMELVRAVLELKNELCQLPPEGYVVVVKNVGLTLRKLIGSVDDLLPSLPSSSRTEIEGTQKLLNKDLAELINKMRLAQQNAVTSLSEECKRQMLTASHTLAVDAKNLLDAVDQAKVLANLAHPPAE

[8] = target: Activated CDC42 kinase 1 (Homo sapiens, UniProt Q07912)
Chain of Activated CDC42 kinase 1 (Q07912 whole entry): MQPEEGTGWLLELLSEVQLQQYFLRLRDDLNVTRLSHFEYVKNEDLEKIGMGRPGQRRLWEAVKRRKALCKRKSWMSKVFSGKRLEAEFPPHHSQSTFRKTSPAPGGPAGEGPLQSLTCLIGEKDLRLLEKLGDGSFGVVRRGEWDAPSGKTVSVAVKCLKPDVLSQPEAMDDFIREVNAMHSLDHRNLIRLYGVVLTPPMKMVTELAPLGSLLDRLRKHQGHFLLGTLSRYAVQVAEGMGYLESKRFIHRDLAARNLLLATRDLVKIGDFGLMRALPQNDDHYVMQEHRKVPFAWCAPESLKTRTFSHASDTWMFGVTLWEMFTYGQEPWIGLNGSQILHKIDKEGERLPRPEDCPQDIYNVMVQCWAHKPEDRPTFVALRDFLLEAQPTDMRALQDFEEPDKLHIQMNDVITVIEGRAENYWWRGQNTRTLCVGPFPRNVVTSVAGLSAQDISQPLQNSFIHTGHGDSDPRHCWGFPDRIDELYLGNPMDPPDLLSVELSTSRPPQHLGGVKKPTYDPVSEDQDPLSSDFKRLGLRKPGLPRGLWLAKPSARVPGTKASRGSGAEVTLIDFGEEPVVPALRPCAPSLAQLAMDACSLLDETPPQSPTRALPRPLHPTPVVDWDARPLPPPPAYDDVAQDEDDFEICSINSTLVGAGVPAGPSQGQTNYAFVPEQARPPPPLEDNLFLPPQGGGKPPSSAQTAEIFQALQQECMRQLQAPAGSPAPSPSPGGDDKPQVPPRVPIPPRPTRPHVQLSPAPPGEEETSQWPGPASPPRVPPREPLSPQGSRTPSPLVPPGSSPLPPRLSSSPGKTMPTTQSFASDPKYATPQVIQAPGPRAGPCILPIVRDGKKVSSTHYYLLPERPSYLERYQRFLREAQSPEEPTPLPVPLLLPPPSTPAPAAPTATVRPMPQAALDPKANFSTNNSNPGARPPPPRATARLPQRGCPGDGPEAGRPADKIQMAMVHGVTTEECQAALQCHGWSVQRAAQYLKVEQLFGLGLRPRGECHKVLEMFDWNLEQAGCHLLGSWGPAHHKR
Also: in the data inactive means no Kd found up to 30 µM.

Kd [1] | Kd [2] | Kd [3] | Kd [4] | Kd [5] | Kd [6] | Kd [7] | Kd [8] | Structure (SMILES)
> 30 µM (inactive) | > 30 µM (inactive) | > 30 µM (inactive) | > 30 µM (inactive) | > 30 µM (inactive) | > 30 µM (inactive) | > 30 µM (inactive) | > 30 µM (inactive) | O=C1NC(=O)[C@@H](c2cn3c4c(cccc24)CCC3)[C@@H]1c1c[nH]c2ccccc12 [TIVANTINIB]
> 30 µM (inactive) | > 30 µM (inactive) | > 30 µM (inactive) | > 30 µM (inactive) | > 30 µM (inactive) | > 30 µM (inactive) | > 30 µM (inactive) | > 30 µM (inactive) | C[C@@H](N)c1ccc(C(=O)Nc2ccnc3[nH]ccc23)cc1 [Y-39983]
> 30 µM (inactive) | > 30 µM (inactive) | > 30 µM (inactive) | > 30 µM (inactive) | > 30 µM (inactive) | > 30 µM (inactive) | > 30 µM (inactive) | > 30 µM (inactive) | CN1C/C=C/CCOc2cccc(c2)-c2ccnc(n2)Nc2cccc(c2)C1 [ZOTIRACICLIB]

Structure (SMILES) | Kd [1] | Kd [2] | Kd [3] | Kd [4] | Kd [5] | Kd [6] | Kd [7] | Kd [8]
Cc1cc(Nc2ncnc3ccc(NC4=NC(C)(C)CO4)cc23)ccc1Oc1ccn2ncnc2c1 [TUCATINIB] | > 30 µM (inactive) | > 30 µM (inactive) | > 30 µM (inactive) | > 30 µM (inactive) | > 30 µM (inactive) | > 30 µM (inactive) | > 30 µM (inactive) | > 30 µM (inactive)

— ChEMBL document CHEMBL3991601, “The target landscape of clinical kinase drugs” (Science, 2017)
